Here are results for twelve compounds from patent US20200223889A1, “Bicyclic Compounds Capable of Binding to Melanocortin 4 Receptor” (Novo Nordisk A/S, priority 2017, published 2020).

Assay [1] deals with T1, human MC1R (Homo sapiens, UniProt Q01726).
T1 construct: expressed in transfected cells
The experiment in a line: Functional cAMP assay (CisBio HTRF) in BHK cells expressing human MC1R. It counts as cell-based. The procedure: In order to assess the potency of the compounds on human MC1R and human MC4R cAMP signalling was measured.
cAMP induction was measured by c-AMPdynamic2 assay, HTRF 62AM4PEC system from CisBio for the human MC1R and human MC4R according to the protocol provided by the vendor. BHK cells expressing the human MC1 or MC4 receptor were generated by stable transfection with expression vectors encoding the cDNA of either MC1R or MC4R.
In details; 25 μl compound—or standard solution were added in the respective wells. Compound was reconstituted in buffer (DMEM w/o phenol red, 10 mM
Hepes, lx Glutamine, 0.1% OV-albumin1, 1 mM IBMX) and serially diluted starting at 2 μM, 10-fold seven times. Dilutions were carried out in the same aforementioned buffer to the desired working concentration ranges (2× higher than the final concentration). 25 μl cell solution was then added and allowed to incubate for 30 min while lightly shaking, at 25° C. […] The provided components for the assay were reconstituted according to the CisBio assay protocol “3.1 supplied reagents and preparation procedure” in MilliQ purification system H2O and diluted 1:20 in lysis buffer. 25 μl cAMP-d2 and 25 μl Cryptate conjugate were added to all wells.
Plates were centrifuged at 1500 rpm for 30 sec and incubated for 1 h, lightly shaking, at 25° C. in a hotel stacker. The plates were read on Mithras LB 940 provided by Berthold Technologies The data were analysed by non-linear regression analysis of binding curves, using the Windows™ program GraphPad™ Prism (GraphPad Software, USA).
The latter is used when no full curve can be obtained in the concentration ranges indicated above.

For assay [2], the target named is T2, human MC4R (Homo sapiens, UniProt P32245).
T2 construct: expressed in transfected cells
T2 sequence (P32245 whole entry): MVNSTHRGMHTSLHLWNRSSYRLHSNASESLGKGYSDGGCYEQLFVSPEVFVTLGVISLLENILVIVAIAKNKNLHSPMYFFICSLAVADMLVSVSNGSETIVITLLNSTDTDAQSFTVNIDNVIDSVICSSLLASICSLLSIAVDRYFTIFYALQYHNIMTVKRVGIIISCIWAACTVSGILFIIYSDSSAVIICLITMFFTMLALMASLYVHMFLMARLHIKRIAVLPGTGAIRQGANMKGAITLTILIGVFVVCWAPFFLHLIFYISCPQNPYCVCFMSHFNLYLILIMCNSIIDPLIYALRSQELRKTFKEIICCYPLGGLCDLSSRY
The experiment in a line: Functional cAMP assay (CisBio HTRF) in BHK cells expressing human MC4R. It counts as cell-based. The following applies: for MC1R/MC4R cAMP EC50 ratio: MC1R cAMP EC50 divided by MC4R cAMP EC50. Put shortly:
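Stably transfected BHK cells expressing human MC1R or MC4R; cAMP quantified by HTRF (cAMP-d2/cryptate) after 30 min compound stimulation at 25 °C in DMEM-based buffer with 1 mM IBMX. Compounds were prepared as 10-fold serial dilutions starting at 2 μM (working solution, 2× final). Readout after 1 h at 25 °C; non-linear regression.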
(In general: cAMP levels reflect the balance of adenylyl cyclase and phosphodiesterase activity.)

The target of assay [3] is T2, human MC4R. The experiment in a line: 125NDP-α-MSH competitive binding to membranes of BHK cells expressing human MC4 receptor (filtration assay). A digest of the protocol: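 Displacement of ^125NDP-α-MSH (apx. […] final) was measured by filtration after 2 h at 25 °C, using diluted membranes of stably transfected BHK cells in pH 7.0 HEPES buffer. Compounds spanned 1 μM to 0.001 nM; binding curves were analysed by non-linear regression.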

[4] abbreviates: BHK cells expressing human MC1R, '>' = highest dose used with no response, read-out: MC1R cAMP EC50.
Setting [5] is: BHK cells expressing human MC4R, '>' = highest dose used with no response, read-out: MC4R cAMP EC50.
Where [6] appears, read: human MC4R, BHK cell membranes, 125NDP-α-MSH radioligand, read-out: MC4R binding Ki.

Where two headings read alike, the source gives them in different places. Positions of bridges follow the written chain, without caps; N, C: chain ends. Non-standard residues stand in square brackets, D forms with d. Residues, ends and D or L forms follow the SMILES beside them. Hyp = O=C(O)[C@@H]1C[C@@H](O)CN1; Dab = NCC[C@H](N)C(=O)O; Aib = CC(C)(N)C(=O)O; GABA = NCCCC(=O)O

T1 sequence (Q01726 whole entry): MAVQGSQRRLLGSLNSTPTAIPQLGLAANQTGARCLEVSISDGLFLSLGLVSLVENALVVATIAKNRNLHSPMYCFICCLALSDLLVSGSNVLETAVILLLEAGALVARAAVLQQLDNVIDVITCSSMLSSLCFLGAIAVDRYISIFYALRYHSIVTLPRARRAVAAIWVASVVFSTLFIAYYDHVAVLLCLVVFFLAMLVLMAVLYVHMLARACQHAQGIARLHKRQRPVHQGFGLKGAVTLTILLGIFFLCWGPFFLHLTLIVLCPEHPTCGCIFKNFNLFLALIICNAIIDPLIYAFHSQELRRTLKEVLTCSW

A word on the EC50: it is the concentration needed to bring the measured effect to its halfway point. As usually defined, the Ki is the equilibrium dissociation constant of an inhibitor or competing ligand from its target. In assay [1], `C[C@H]1NC(=O)[C@@H]2CSSC[C@H](NC(=O)[C@H](Cc3c[nH]c4ccccc34)NC(=O)[C@H](CCCNC(=N)N)NC(=O)[C@@H](Cc3ccccc3)NC(=O)[C@H](Cc3c[nH]cn3)NC1=O)C(=O)N[C@H](C)C(=O)N[C@@H](Cc1c[nH]cn1)C(=O)N[C@H](Cc1ccccc1)C(=O)N[C@@H](CCCNC(=N)N)C(=O)N[C@@H](Cc1c[nH]c3ccccc13)C(=O)N2` [Chem. 10, c[c[Cys-D-Ala-His-D-Phe-Arg-Trp- Cys]-D-Ala-His-D-Phe-Arg-Trp]] had an EC50 of 4.88 nM. Besides, in assay [2], the EC50 came to 0.05 nM and the “MC1R/MC4R cAMP EC50 ratio” value amounted to 98. This compound displayed a Ki in assay [3] of 0.13 nM.
The matching figures for `C[C@@H]1NC(=O)[C@H](C)NC(=O)[C@@H]2CSSC[C@H](NC(=O)[C@H](Cc3c[nH]c4ccccc34)NC(=O)[C@H](C)NC(=O)[C@@H](Cc3ccccc3)NC1=O)C(=O)N[C@@H](C)C(=O)N[C@@H](Cc1c[nH]cn1)C(=O)N[C@H](Cc1ccccc1)C(=O)N[C@@H](CCCNC(=N)N)C(=O)N[C@@H](Cc1c[nH]c3ccccc13)C(=O)N2` [Chem. 11, c[[Cys-Ala-His-D-Phe-Arg-Trp-Cys]- Ala-Ala-D-Phe-Ala-Trp]] (cyclo(AA[dF]AWCAH[dF]RWC); disulfide 6-12): 2.17 nM, 0.03 nM, 72 and 0.25 nM.
On the same counts, the results for `C[C@@H]1NC(=O)[C@@H]2CSSC[C@H](NC(=O)[C@H](Cc3c[nH]c4ccccc34)NC(=O)[C@H](CCCNC(=N)N)NC(=O)[C@@H](Cc3ccccc3)NC(=O)[C@H](Cc3c[nH]cn3)NC1=O)C(=O)N[C@@H](CCCNC(=N)N)C(=O)N[C@@H](Cc1ccccc1)C(=O)N[C@@H](Cc1ccccc1)C(=O)N[C@@H](CC(N)=O)C(=O)N[C@@H](C)C(=O)N2` [Chem. 12, c[c[Cys-Ala-His-D-Phe-Arg-Trp-Cys]- Arg-Phe-Phe-Asn-Ala]] (cyclo(ACAH[dF]RWCRFFN); disulfide 2-8) are 3.97 nM, 0.07 nM, 57 and 0.28 nM.
The matching figures for `C[C@@H]1NC(=O)[C@@H]2CSSC[C@H](NC(=O)[C@H](Cc3c[nH]c4ccccc34)NC(=O)[C@H](CCCNC(=N)N)NC(=O)[C@@H](Cc3ccccc3)NC(=O)[C@H](Cc3c[nH]cn3)NC1=O)C(=O)N[C@@H](CCCNC(=N)N)C(=O)N[C@@H](Cc1ccccc1)C(=O)N[C@@H](Cc1ccccc1)C(=O)N[C@@H](CC(N)=O)C(=O)N[C@@H](C)C(=O)N[C@@H](Cc1ccccc1)C(=O)N2` [Chem. 13, c[c[Cys-Ala-His-D-Phe-Arg-Trp-Cys]- Arg-Phe-Phe-Asn-Ala-Phe]] (cyclo(AFCAH[dF]RWCRFFN); disulfide 3-9): 6.36 nM, 0.1 nM, 64 and 0.26 nM.
As to `C[C@@H]1NC(=O)[C@@H]2CSSC[C@H](NC(=O)[C@H](Cc3c[nH]c4ccccc34)NC(=O)[C@H](CCCCNC(=N)N)NC(=O)[C@@H](Cc3ccccc3)NC(=O)[C@H](Cc3c[nH]cn3)NC1=O)C(=O)N[C@@H](C)C(=O)N[C@@H](Cc1c[nH]cn1)C(=O)N[C@H](Cc1ccccc1)C(=O)N[C@@H](CCCCNC(=N)N)C(=O)N[C@@H](Cc1c[nH]c3ccccc13)C(=O)N2` [Chem. 22, c[c[Cys-Ala-His-D-Phe-HArg-Trp- Cys]-Ala-His-D-Phe-HArg-Trp]], the EC50 in assay [1] (setting [4]) turned out to be 0.22 nM; in assay [2] (setting [5]), 0.02 nM. Besides, in assay [2], the “MC1R/MC4R cAMP EC50 ratio” value came out at 11. In addition, the Ki in assay [3] (setting [6]) was 0.06 nM.
For the compound `N=C(N)NCCC[C@@H]1NC(=O)[C@@H](Cc2ccccc2)NC(=O)[C@H](Cc2c[nH]cn2)NC(=O)[C@H]2CCCN2C(=O)[C@@H]2CSSC[C@H](NC(=O)[C@H](Cc3c[nH]c4ccccc34)NC1=O)C(=O)N1CCC[C@@H]1C(=O)N[C@@H](Cc1c[nH]cn1)C(=O)N[C@H](Cc1ccccc1)C(=O)N[C@@H](CCCNC(=N)N)C(=O)N[C@@H](Cc1c[nH]c3ccccc13)C(=O)N2` [Chem. 33, c[c[Cys-D-Pro-His-D-Phe-Arg-Trp- Cys]-D-Pro-His-D-Phe-Arg-Trp]] (cyclo(C[dP]H[dF]RWC[dP]H[dF]RW); disulfide 1-7), the EC50 in assay [1] (setting [4]) is over 1 nM; in assay [2] (setting [5]), 19.8 nM. In assay [3] (setting [6]), the Ki turned out to be 27.8 nM.
Take `N=C(N)NCCC[C@@H]1NC(=O)[C@@H](Cc2ccccc2)NC(=O)[C@H](Cc2c[nH]cn2)NC(=O)CCCNC(=O)[C@@H]2CSSC[C@H](NC(=O)[C@H](Cc3c[nH]c4ccccc34)NC1=O)C(=O)NCCCC(=O)N[C@@H](Cc1c[nH]cn1)C(=O)N[C@H](Cc1ccccc1)C(=O)N[C@@H](CCCNC(=N)N)C(=O)N[C@@H](Cc1c[nH]c3ccccc13)C(=O)N2` [Chem. 35, c[c[Cys-GABA-His-D-Phe-Arg-Trp- Cys]-GABA-His-D-Phe-Arg-Trp]] (cyclo(C[GABA]H[dF]RWC[GABA]H[dF]RW); disulfide 1-7): the EC50 in assay [1] (setting [4]) was found to be 0.28 nM; in assay [2] (setting [5]), 0.01 nM. The “MC1R/MC4R cAMP EC50 ratio” value in assay [2] is 28. Moreover, in assay [3] (setting [6]), the Ki amounted to 0.03 nM.
On to `CC1(C)NC(=O)[C@@H]2CSSC[C@H](NC(=O)[C@H](Cc3c[nH]c4ccccc34)NC(=O)[C@H](CCCNC(=N)N)NC(=O)[C@@H](Cc3ccccc3)NC(=O)[C@@H]3C[C@@H](O)CN3C1=O)C(=O)NC(C)(C)C(=O)N1C[C@H](O)C[C@H]1C(=O)N[C@H](Cc1ccccc1)C(=O)N[C@@H](CCCNC(=N)N)C(=O)N[C@@H](Cc1c[nH]c3ccccc13)C(=O)N2` [Chem. 38, c[c[Cys-Aib-Hyp-D-Phe-Arg-Trp- Cys]-Aib-Hyp-D-Phe-Arg-Trp]] (cyclo([Aib][Hyp][dF]RWC[Aib][Hyp][dF]RWC); disulfide 6-12), for which the EC50 in assay [1] (setting [4]) was over 3.7 nM; in assay [2] (setting [5]) it was 4.22 nM. For the same compound, in assay [3] (setting [6]), the Ki came to 5.64 nM.
Consider `C[C@@H]1NC(=O)[C@@H]2CSSC[C@H](NC(=O)[C@H](Cc3c[nH]c4ccccc34)NC(=O)[C@H](CNC(=N)N)NC(=O)[C@@H](Cc3ccccc3)NC(=O)[C@H](Cc3c[nH]cn3)NC1=O)C(=O)N[C@@H](C)C(=O)N[C@@H](Cc1c[nH]cn1)C(=O)N[C@H](Cc1ccccc1)C(=O)N[C@@H](CNC(=N)N)C(=O)N[C@@H](Cc1c[nH]c3ccccc13)C(=O)N2` [Chem. 42, c[c[Cys-Ala-His-D-Phe-AGP-Trp- Cys]-Ala-His-D-Phe-AGP-Trp]], for which the EC50 in assay [1] (setting [4]) was over 100 nM; in assay [2] (setting [5]) it was over 1000 nM. Besides, the Ki in assay [3] (setting [6]) was at least 10000 nM.
Consider `C[C@@H]1NC(=O)[C@@H]2CSSC[C@H](NC(=O)[C@H](Cc3c[nH]c4ccccc34)NC(=O)[C@H](CCCNC(=N)N)NC(=O)[C@@H](Cc3ccccc3)NC(=O)[C@H](Cc3c[nH]cn3)NC1=O)C(=O)N[C@@H](C)C(=O)N[C@@H](CCC(=O)O)C(=O)N[C@@H](CCC(=O)O)C(=O)N[C@@H](CCC(=O)O)C(=O)N[C@@H](Cc1c[nH]c3ccccc13)C(=O)N2` [Chem. 44, c[c[Cys-Ala-His-D-Phe-Arg-Trp-Cys]- Ala-Glu-Glu-Glu-Trp]] (cyclo(AEEEWCAH[dF]RWC); disulfide 6-12), for which the EC50 in assay [1] amounted to 31.9 nM. Also, in assay [2], the response was half-maximal at 1.53 nM (EC50) and the “MC1R/MC4R cAMP EC50 ratio” value worked out at 21. Affinity in assay [3] was put at a Ki of 50.9 nM.
Take `CC1(C)NC(=O)[C@@H]2CSSC[C@H](NC(=O)[C@H](Cc3c[nH]c4ccccc34)NC(=O)[C@H](CCN)NC(=O)[C@@H](Cc3ccccc3)NC(=O)[C@H](Cc3c[nH]cn3)NC1=O)C(=O)NC(C)(C)C(=O)N[C@@H](Cc1c[nH]cn1)C(=O)N[C@H](Cc1ccccc1)C(=O)N[C@@H](CCN)C(=O)N[C@@H](Cc1c[nH]c3ccccc13)C(=O)N2` [Chem. 46, c[c[Cys-Aib-His-D-Phe-Dab-Trp- Cys]-Aib-His-D-Phe-Dab-Trp]] (cyclo([Aib]H[dF][Dab]WC[Aib]H[dF][Dab]WC); disulfide 6-12): the EC50 in assay [1] (setting [4]) was over 5.5 nM; in assay [2] (setting [5]), 5.65 nM. For the same compound, the “MC1R/MC4R cAMP EC50 ratio” value in assay [2] is listed as over 1. Further, the Ki in assay [3] (setting [6]) is 7.86 nM.
In assay [1], `C[C@@H]1NC(=O)[C@@H]2CSSC[C@H](NC(=O)[C@H](Cc3c[nH]c4ccccc34)NC(=O)[C@H](CCCNC(=N)N)NC(=O)[C@H](Cc3ccccc3)NC(=O)[C@H](Cc3c[nH]cn3)NC1=O)C(=O)N[C@@H](C)C(=O)N[C@@H](Cc1c[nH]cn1)C(=O)N[C@@H](Cc1ccccc1)C(=O)N[C@@H](CCCNC(=N)N)C(=O)N[C@@H](Cc1c[nH]c3ccccc13)C(=O)N2` [Chem. 56, c[c[Cys-Ala-His-Phe-Arg-Trp-Cys]- Ala-His-Phe-Arg-Trp]] came in with an EC50 of 35.3 nM. Further, in assay [2], the midpoint of the response, the EC50, lay at 0.44 nM and the “MC1R/MC4R cAMP EC50 ratio” value amounted to 80. Also, the affinity in assay [3] corresponds to a Ki of 1.82 nM.
